Experimental data published in patent publication US12084610B2, “Compositions and methods for reducing deleterious atmospheric gas emissions from flooded ecosystems” (Arkea Bio Corp., priority 2022, dated 2024).

Key:
[1] = 3-NOP pH and temperature stability (HPLC); type: physicochemical; conditions: 1-month time period, temperature 4-30 C, pH 4-10
Source text: 3-NOP pH and Temperature Stability: Confirmed via HPLC over a 1-month time period at temperature between 4-30 C and pH 4-10.

[2] = 3-NOP volatility (mass loss open to air); type: physicochemical; conditions: 500 mg in 5 dram vial open to air, ~18-24 C, 15-30% RH, 6 days
Experimental: 3-NOP Volatility: 500 mg of 3-NOP in a 5 dram vial was left open to air at ˜18-24 C at 15-30% RH over the course of 6 days. Average mass loss is ˜0.25% per day.

**Q.** With `O=[N+]([O-])OCCCO` [Formula 3-NOP, 3-nitrooxypropanol] as the compound, how does the “3-NOP pH and Temperature Stability” value [1] read?
**A.** The value was “Confirmed”.

**Q.** And the “Average mass loss (volatility)” value [2]?
**A.** Its value is roughly 0.25 % per day.
